{
  "source": "patent US9504684B2",
  "about": "“Syk inhibitors” (Gilead Sciences, Inc., priority 2014, dated 2016)",
  "key": {"human hepatocytes": {"test_system": "human hepatocytes", "test": "Human Hepatocyte Stability Assay", "format": "in vitro ADME", "procedure": "The human […] stability of the compounds as predicted hepatocyte clearance in L/hr/kg was assessed. Compounds to be tested were diluted to 200 μM (4 μl of 10 mM DMSO stock into 196 μl ACN:H2O (50:50). Propranolol was used as a positive control, and buffer only without hepatocytes as 0% control. These were further diluted 4 μl with 891 μl KHB buffer (InVitroGRO catalog number Z99074) to provide 2× dosing solution. To each well of 24 well plate, 250 μl of the 2× dosing solution was added to each well with 250 μl of hepatocytes cells (1×10^6 viable cells/ml per well) or KHB for control samples to achieve a final compound concentration of 1 μM during incubation. The final solvent concentration was 0.01% DMSO and 0.25% ACN. The culture plate was placed on a rocker and incubated at 37° C., 5% CO2. Samples were collected at time 0, 1, 3, and 6 hours. The loss of parent compound was determined using LC-MS methods against a standard curve."}, "[1]": {"conditions": "cited from earlier work"}, "[2]": {"conditions": "in vivo; cited from earlier work"}, "[3]": {"conditions": "comparison table of Example 12, head prints \"(units)\", L/hr/kg per Example 11"}, "[4]": {"conditions": "predicted hepatocyte clearance, human hepatocytes, 1 μM compound"}},
  "note": "Structures can show the parent of a compound that is named as a salt.",
  "data": [
    {"smiles": "COc1ccc(Nc2nc(-c3cccc(N)c3)cn3ccnc23)cc1OC", "note": "[6-(3-aminophenyl)-N-(3,4-dimethoxyphenyl)imidazo[1,2-a]pyrazin-8-amine, reference compound]", "values": [
      {"measurement": "Hheps CL", "setting": "human hepatocytes; [3]", "value": 0.24, "unit": "L/h/kg"}
    ]},
    {"smiles": "Cc1ncc(-c2cn3ccnc3c(Nc3ccc(N4CCOCC4)cc3)n2)cc1N", "note": "[6-(5-amino-6-methylpyridin-3-yl)-N-(4-morpholinophenyl)imidazo[1,2-a]pyrazin-8-amine, reference compound]", "values": [
      {"measurement": "Hheps CL", "setting": "human hepatocytes; [3]", "value": 0.80, "unit": "L/h/kg"}
    ]},
    {"smiles": "Nc1cncc(-c2cn3ccnc3c(Nc3ccc(N4CCOCC4)cc3)n2)c1", "note": "[6-(5-aminopyridin-3-yl)-N-(4-morpholinophenyl)imidazo[1,2-a]pyrazin-8-amine, reference compound]", "values": [
      {"measurement": "Hheps CL", "setting": "human hepatocytes; [3]", "value": 0.68, "unit": "L/h/kg"}
    ]},
    {"smiles": "COc1ccc(Nc2nc(-c3ccc(N)nc3)cn3ccnc23)cc1OC", "note": "[6-(6-aminopyridin-3-yl)-N-(3,4-dimethoxyphenyl)imidazo[1,2-a]pyrazin-8-amine, reference compound]", "values": [
      {"measurement": "Hheps CL", "setting": "human hepatocytes; [3]", "value": 0.90, "unit": "L/h/kg"}
    ]},
    {"smiles": "Cc1ncc(-c2cn3ccnc3c(Nc3ccc(N4CCN(C5COC5)CC4)cc3)n2)nc1N", "note": "[Ex.-1, 6-(6-amino-5-methylpyrazin-2-yl)-N-(4-(4-(oxetan-3-yl)piperazin-1-yl)phenyl)imidazo[1,2-a]pyrazin-8-amine]", "values": [
      {"measurement": "Hheps CL", "setting": "human hepatocytes; [3]", "value": 0.12, "unit": "L/h/kg"},
      {"measurement": "Hheps CL", "setting": "human hepatocytes; [4]", "value": 0.12, "unit": "L/h/kg"}
    ]},
    {"smiles": "Nc1cncc(-c2cn3ccnc3c(Nc3ccc(N4CCN(C5COC5)CC4)cc3)n2)n1", "note": "[Ex.-2, 6-(6-aminopyrazin-2-yl)-N-(4-(4-(oxetan-3-yl)piperazin-1-yl)phenyl)imidazo[1,2-a]pyrazin-8-amine]", "values": [
      {"measurement": "Hheps CL", "setting": "human hepatocytes; [3]", "value": 0.055, "unit": "L/h/kg"},
      {"measurement": "Hheps CL", "setting": "human hepatocytes; [4]", "value": 0.055, "unit": "L/h/kg"}
    ]},
    {"smiles": "Nc1cncc(-c2cn3ccnc3c(Nc3ccc(N4CCO[C@@H](CO)C4)cc3)n2)n1", "note": "[Ex.-3, (R)-(4-(4-((6-(6-aminopyrazin-2-yl)imidazo[1,2-a]pyrazin-8-yl)amino)phenyl)morpholin-2-yl)methanol]", "values": [
      {"measurement": "Hheps CL", "setting": "human hepatocytes; [3]", "value": 0.09, "unit": "L/h/kg"},
      {"measurement": "Hheps CL", "setting": "human hepatocytes; [4]", "value": 0.09, "unit": "L/h/kg"}
    ]},
    {"smiles": "Cc1c(-c2cncc(N)n2)nc(Nc2ccc(N3CCN(C4COC4)CC3)cc2)c2nccn12", "note": "[Ex.-4, 6-(6-aminopyrazin-2-yl)-5-methyl-N-(4-(4-(oxetan-3-yl)piperazin-1-yl)phenyl)imidazo[1,2-a]pyrazin-8-amine]", "values": [
      {"measurement": "Hheps CL", "setting": "human hepatocytes; [3]", "value": 0.08, "unit": "L/h/kg"},
      {"measurement": "Hheps CL", "setting": "human hepatocytes; [4]", "value": 0.08, "unit": "L/h/kg"}
    ]},
    {"smiles": "Nc1cncc(-c2cn3ccnc3c(Nc3ccc(N4CCN(C5COC5)CC4)c(OCCO)c3)n2)n1", "note": "[Ex.-5, 2-(5-((6-(6-aminopyrazin-2-yl)imidazo[1,2-a]pyrazin-8-yl)amino)-2-(4-(oxetan-3-yl)piperazin-1-yl)phenoxy)ethanol]", "values": [
      {"measurement": "Hheps CL", "setting": "human hepatocytes; [3]", "value": 0.07, "unit": "L/h/kg"},
      {"measurement": "Hheps CL", "setting": "human hepatocytes; [4]", "value": 0.07, "unit": "L/h/kg"}
    ]},
    {"smiles": "Nc1cncc(-c2cn3ccnc3c(Nc3ccc(N4CCN(CC(CO)CO)CC4)cc3)n2)n1", "note": "[Ex.-6, 2-((4-(4-((6-(6-aminopyrazin-2-yl)imidazo[1,2-a]pyrazin-8-yl)amino)phenyl)piperazin-1-yl)methyl)propane-1,3-diol]", "values": [
      {"measurement": "Hheps CL", "setting": "human hepatocytes; [3]", "value": 0.08, "unit": "L/h/kg"},
      {"measurement": "Hheps CL", "setting": "human hepatocytes; [4]", "value": 0.08, "unit": "L/h/kg"}
    ]},
    {"smiles": "Cc1ncc(-c2cn3ccnc3c(Nc3ccc(N4CCN(C5COC5)CC4)c(OCCO)c3)n2)nc1N", "note": "[Ex.-7, 2-(5-((6-(6-amino-5-methylpyrazin-2-yl)imidazo[1,2-a]pyrazin-8-yl)amino)-2-(4-(oxetan-3-yl)piperazin-1-yl)phenoxy)ethanol]", "values": [
      {"measurement": "Hheps CL", "setting": "human hepatocytes; [3]", "value": 0.05, "unit": "L/h/kg"},
      {"measurement": "Hheps CL", "setting": "human hepatocytes; [4]", "value": 0.05, "unit": "L/h/kg"}
    ]},
    {"smiles": "CC[C@]1(O)C[C@H]2CN(CCc3c([nH]c4ccccc34)[C@@](C(=O)OC)(c3cc4c(cc3OC)N(C=O)[C@H]3[C@@](O)(C(=O)OC)[C@H](OC(C)=O)[C@]5(CC)C=CCN6CC[C@]43[C@@H]65)C2)C1", "note": "[Vincristine Sulfate, vincristine sulfate]", "values": [
      {"measurement": "solubility in 95% ethanol", "setting": "[1]; 95% ethanol", "value": "only slightly soluble"},
      {"measurement": "solubility in methanol", "setting": "[1]; methanol", "value": "soluble in methanol"},
      {"measurement": "solubility in water", "setting": "[1]; water", "value": "freely soluble"}
    ]},
    {"smiles": "CC[C@]1(O)C[C@@H]2CN(CCc3c([nH]c4ccccc34)[C@@](C(=O)OC)(c3cc4c(cc3OC)N(C)[C@H]3[C@@](O)(C(N)=O)[C@H](O)[C@]5(CC)C=CCN6CC[C@]43[C@@H]65)C2)C1", "note": "[Vindesine, vindesine]", "values": [
      {"measurement": "serum half-life", "setting": "[2]", "value": 24, "unit": "h"}
    ]}
  ]
}
